Laboratory results published in patent US20240059695A1, “SUBSTITUTED IMIDAZO[1,5-b]PYRIDAZINE COMPOUNDS AS KINASE INHIBITORS AND USE THEREOF” (IMPACT THERAPEUTICS (SHANGHAI), INC, priority 2020, published 2024).

Key:
[1] = Pharmacokinetics following single oral administration to mice; format: in vivo; conditions: mouse, CD-1 (ICR) mice, gavage 10 mg/kg, 0.5% methylcellulose/water suspension, plasma
Protocol: The compound of the present invention was formulated into a 0.5% methylcellulose/water uniform suspension, and was administered to CD-1 (ICR) mice by gavage at 10 mg/kg. Plasma samples were collected at 8 time points of 0.250, 0.500, 1.00, 2.00, 4.00, 6.00, 8.00 and 24.0 hours post-dose. Concentrations of the compound were determined by LC-MS/MS method.

[2] = system: human breast cancer HCC1806 cell; assay: MTT proliferation assay of Example 1, HCC1806; format: cell-based; conditions: HCC1806, 96 h, 4 days
Protocol: (§1) The cells were digested by trypsinase and centrifuged at 800 rpm for 5 minutes, the supernatant was discarded, and the residual was resuspended with fresh medium (1640 medium+10% FRS) and counted. The cells were seeded into 96well cell culture plate with a density of 2000/4000 cells per well and incubated overnight in a 5% CO2 incubator at 37° C. The stock solutions of the test substances were serially diluted to 8 concentrations by DMSO at the ratios of 1:3 and 1:10, respectively. 5 μL diluent of each concentration was added to […] (25 times diluted) and mixed by shaking. The overnight cell plates were taken and the culture medium was removed, 195 μL of fresh medium was added to each well, and 5 μL of diluted medium containing the corresponding concentration of the test compound was added respectively (the final concentration of DMSO is 1%), and the culture plate was then placed in a 5% CO2 incubator at 37° C for 4 days. After removing the original solution, […] of fresh serum-free DMEM medium containing MTT (0.5 mg/mL) was added to each well, the culture was continued. After 4 hours, the original solution was removed, 100 μL, of DMSO was added to each well, the 96-well plates were shaken for 10 minutes in the dark and placed in a multi-function reader to read the absorbance at the wavelength of 552/690 nm. […]

[3] = system: human ovarian cancer OVCAR-3 cell; assay: Synergistic inhibition of Example 1 in combination with senaparib, MTT assay; format: cell-based; conditions: for Combination Index (CI): OVCAR-3, 3 days
Protocol: The cells were digested by trypsinase and centrifuged at 800 rpm for 5 minutes, the supernatant was discarded, and the residual was resuspended with fresh medium (1640 medium+10% FBS) and counted. The cells were seeded into 96-well cell culture plate with an appropriate density and incubated overnight in a 5% CO2 incubator at 37° C. The stock solutions of the test substances were serially diluted to 4-5 concentrations by DMSO at the ratios of 1:3, respectively. 5 µL diluent of each concentration was added to 120 μL of medium (25 times diluted) and mixed by shaking. The overnight cell plates were taken and the culture medium was removed, […] of fresh medium was added to each well, and 5 μL of diluted compound or 5 μL of medium containing DMSO was added respectively (the final concentration of DMSO is 1%), and the culture plate was then placed in a 5% CO2 incubator at 37° C. for 3 days. After removing the original solution, 100 μL of fresh serum-free DMEM medium containing MTT (0.5 mg/mL) was added to each well, the culture was continued. After 4 hours, the original solution was removed, 100 μL of DMSO was added to each well, the 96-well plates were shaken for 10 minutes in the dark and placed in a multi-function reader to read the absorbance at the wavelength of 552/690 nm. Cell viability (%)=(ODcompound−ODbackground)/(ODDMSO−ODbackground)×100. The combination index (CI) was calculated with the software CalcuSyn.

[4] = system: human colon cancer LoVo cell; assay: MTT proliferation assay, LoVo; format: cell-based; conditions: Homo sapiens, LoVo, 96 h, MTT, 4 days; read-out: IC50 (nM), proliferation of LoVo cell
Protocol: The cells were seeded into 96-well cell culture plate with a density of 2000/4000 cells per well and incubated overnight in a 5% CO2 incubator at 37° C. […] 5 μL diluent of each concentration was added to 120 μL of medium (25 times diluted) and mixed by shaking. The overnight cell plates were taken and the culture medium was removed, 195 μL of fresh medium was added to each well, and 5 μL of diluted medium containing the corresponding concentration of the test compound was added respectively (the final concentration of DMSO is 1%), and the culture plate was then placed in a 5% CO2 incubator at 37° C. for 4 days. After removing the original solution, […] of fresh serum-free DMEM medium containing MTT (0.5 mg/mL) was added to each well, the culture was continued. […] Cell viability (%)=(ODcompound−ODbackground)/ODDMSO−ODbackground)×100. GraphPad Prism 6.0 was used to analyze the data. The inhibitory activity of compounds on cell proliferation was plotted based on cell viability and the logarithm of compound concentration. The IC5.0 value was fitted by a sigmoidal dose response curve equation Y=100/(1+10^(LogC-LogIC50)), wherein C was the concentration of compound.

[5] = system: human non-small cell lung cancer A549 cell; assay: MTT proliferation assay of Example 1, A549; format: cell-based; conditions: A549, 96 h, 4 days
Protocol: as §1

Cc1nc(-c2ccn[nH]2)n2nc(N3CCOC[C@H]3C)cc(-c3ccnn3C)c12 [Example 1, (R)-3-methyl-4-(5-methyl-4-(1-methyl-1H-pyrazol-5-yl)-7-(1H-pyrazol-5-yl)imidazo[1,5-b]pyridazin-2-yl)morpholine]
AUC(0-inf) [1]: 98500 ng·h/mL
AUC(0-t) [1]: 98500 ng·h/mL
Cmax [1]: 9340 ng/mL
half-life [1]: 1.64 h
IC50 [2]: 38.8 nM
Combination Index (CI) ([3]; 11 nM Example 1 + 37 nM senaparib): 1.157
Combination Index (CI) ([3]; 11 nM Example 1 + 111 nM senaparib): 0.215
Combination Index (CI) ([3]; 11 nM Example 1 + 333 nM senaparib): 0.069
Combination Index (CI) ([3]; 11 nM Example 1 + 1000 nM senaparib): 0.052
Combination Index (CI) ([3]; 11 nM Example 1 + 3000 nM senaparib): 0.044
Combination Index (CI) ([3]; 33 nM Example 1 + 37 nM senaparib): 0.275
Combination Index (CI) ([3]; 33 nM Example 1 + 111 nM senaparib): 0.213
Combination Index (CI) ([3]; 33 nM Example 1 + 333 nM senaparib): 0.18
Combination Index (CI) ([3]; 33 nM Example 1 + 1000 nM senaparib): 0.148
Combination Index (CI) ([3]; 33 nM Example 1 + 3000 nM senaparib): 0.12
Combination Index (CI) ([3]; 100 nM Example 1 + 37 nM senaparib): 0.603
Combination Index (CI) ([3]; 100 nM Example 1 + 111 nM senaparib): 0.544
Combination Index (CI) ([3]; 100 nM Example 1 + 333 nM senaparib): 0.488
Combination Index (CI) ([3]; 100 nM Example 1 + 1000 nM senaparib): 0.424
Combination Index (CI) ([3]; 100 nM Example 1 + 3000 nM senaparib): 0.364
Combination Index (CI) ([3]; 300 nM Example 1 + 37 nM senaparib): 1.588
Combination Index (CI) ([3]; 300 nM Example 1 + 111 nM senaparib): 1.471
Combination Index (CI) ([3]; 300 nM Example 1 + 333 nM senaparib): 1.377
Combination Index (CI) ([3]; 300 nM Example 1 + 1000 nM senaparib): 1.276
Combination Index (CI) ([3]; 300 nM Example 1 + 3000 nM senaparib): 1.195
synergistic effect on inhibiting the proliferation of OVCAR-3 cells (in words) ([3]; combination of Example 1 and senaparib): good synergistic effect
IC50 [4]: 26.7 nM
IC50 [5]: 157 nM
